Counter-ions that a name gives are not always drawn. Like-named read-outs stand apart in the source and are kept apart here.
What was measured:
[1] = test system: cancer cell lines; experiment: Cell viability analysis (WST-1) on cancer cell lines; type: cell-based, human; details: drug 10 μM, 72 hours, WST-1; Table 3
[2] = test system: HI650 (Lung Adenocarcinoma); experiment: Cell viability analysis, lung cancer HI650; type: cell-based, human; details: Homo sapiens, NCI-H1650, 72 h
[3] = test system: A549 (Lung Adenocarcinoma); experiment: Cell viability analysis, lung cancer A549; type: cell-based, human; details: Homo sapiens, A549, 72 h
[4] = test system: AGS (Gastric Adenocarcinoma); experiment: Cell viability analysis, gastric cancer AGS; type: cell-based, human; details: Homo sapiens, 72 h
[5] = test system: MKN-45 (Gastric Adenocarcinoma); experiment: Cell viability analysis, gastric cancer MKN-45; type: cell-based, human; details: Homo sapiens, MKN-45, 72 h
[6] = test system: HepG2 (Hepatocellular Carcinoma); experiment: Cell viability analysis, hepatic cancer HepG2; type: cell-based, human; details: Homo sapiens, HepG2, 72 h
[7] = test system: Hep3B (hepatocellular carcinoma); experiment: Cell viability analysis, hepatic cancer Hep3B; type: cell-based, human; details: Homo sapiens, Hep3B, 72 h, read-out: The results of antibiotic drug inhibiting cancer cell lines (cell viability analysis), Hep3B
[8] = test system: LoVo (Colorectal Adenocarcinoma); experiment: Cell viability analysis, colon cancer LoVo; type: cell-based, human; details: Homo sapiens, LoVo, 72 h
[9] = test system: A375 (Amelanotic Melanoma); experiment: Cell viability analysis, skin cancer A375; type: cell-based, human; details: Homo sapiens, A-375, 72 h, read-out: cell viability (survival rate), A375, drug 10 μM, 72 hours, WST-1, OD450 nm
[10] = test system: BCC (basal cell carcinoma); experiment: Cell viability analysis, skin cancer BCC; type: cell-based, human; details: Homo sapiens, 72 h, read-out: The results of antibiotic drug inhibiting cancer cell lines (cell viability analysis), BCC
[11] = test system: HeLa (Cervix Adenocarcinoma); experiment: Cell viability analysis, cervical cancer HeLa; type: cell-based, human; details: Homo sapiens, HeLa, 72 h
[12] = test system: C-33A (Cervical carcinoma); experiment: Cell viability analysis, cervical cancer C-33A; type: cell-based, human; details: Homo sapiens, C-33-A, 72 h, read-out: The results of antibiotic drug inhibiting cancer cell lines (cell viability analysis), C-33A
[13] = test system: PC3 (p53−) (Prostate Adenocarcinoma); experiment: Cell viability analysis, prostate cancer PC3; type: cell-based, human; details: Homo sapiens, 72 h
[14] = test system: TSGH-8301 (Urinary Bladder Carcinoma); experiment: Cell viability analysis, bladder cancer TSGH-8301; type: cell-based, human; details: Homo sapiens, 72 h
[15] = test system: T24; experiment: Cell viability analysis, bladder cancer T24; type: cell-based, human; details: Homo sapiens, T-24, 72 h, read-out: The results of antibiotic drug inhibiting cancer cell lines (cell viability analysis), T24
[16] = test system: MCF7 (Mammary Gland, Adenocarcinoma); experiment: Cell viability analysis, breast cancer MCF7; type: cell-based, human; details: Homo sapiens, MCF7, 72 h
[17] = test system: MDA-MB-231 (Mammary Gland, Adenocarcinoma); experiment: Cell viability analysis, breast cancer MDA-MB-231; type: cell-based, human; details: Homo sapiens, MDA-MB-231, 72 h, read-out: The results of antibiotic drug inhibiting cancer cell lines (cell viability analysis), MDA-MB231
[18] = test system: BxPC-3; experiment: Cell viability analysis, pancreatic cancer BxPC-3; type: cell-based, human; details: Homo sapiens, BXPC-3, 72 h, read-out: The results of antibiotic drug inhibiting cancer cell lines (cell viability analysis), BxPC-3
[19] = test system: AsPC-1; experiment: Cell viability analysis, pancreatic cancer AsPC-1; type: cell-based, human; details: Homo sapiens, ASPC1, 72 h, read-out: The results of antibiotic drug inhibiting cancer cell lines (cell viability analysis), AsPC-1
[20] = test system: TOV-21G; experiment: Cell viability analysis, ovarian cancer TOV-21G; type: cell-based, human; details: Homo sapiens, TOV21G, 72 h, read-out: The results of antibiotic drug inhibiting cancer cell lines (cell viability analysis), TOV-21G
[21] = test system: SAS (Tongue squamous cell carcinoma); experiment: Cell viability analysis, tongue cancer SAS; type: cell-based, human; details: Homo sapiens, 72 h, read-out: The results of antibiotic drug inhibiting cancer cell lines (cell viability analysis), SAS
[22] = test system: U-2OS; experiment: Cell viability analysis, osteosarcoma U-2OS; type: cell-based, human; details: Homo sapiens, U2OS, 72 h, read-out: The results of antibiotic drug inhibiting cancer cell lines (cell viability analysis), U2OS
[23] = test system: 786-O (Renal adenocarcinoma); experiment: Cell viability analysis, renal cancer 786-O; type: cell-based, human; details: Homo sapiens, 786-0, 72 h, read-out: The results of antibiotic drug inhibiting cancer cell lines (cell viability analysis), 786-O
[24] = test system: HL-60 (Acute Promyelocytic Leukemia); experiment: Cell viability analysis, leukemia HL-60; type: cell-based, human; details: Homo sapiens, HL-60, 72 h, read-out: cell viability (survival rate), HL-60, drug 10 μM, 72 hours, WST-1, OD450 nm
[25] = test system: HCT116 (p53+) (Colorectal Carcinoma)

What does the source list for `CN(C)CCC[C@@]1(c2ccc(F)cc2)OCc2cc(C#N)ccc21` [Escitalopram oxalate]?
inhibition effect on different cancer cell lines [1]: significant inhibition effect; viability at 10 µM ([2]; read-out: The results of antibiotic drug inhibiting cancer cell lines (cell viability analysis), H1650, H1650, repeated experiment): 92.1%; viability at 10 µM ([2]; read-out: cell viability (survival rate), H1650, drug 10 μM, 72 hours, WST-1, OD450 nm): 80.4%; viability at 10 µM ([3]; read-out: The results of antibiotic drug inhibiting cancer cell lines (cell viability analysis), A549, A549, repeated experiment): 103%; viability at 10 µM ([3]; read-out: cell viability (survival rate), A549, drug 10 μM, 72 hours, WST-1, OD450 nm): 122%; viability at 10 µM ([4]; read-out: The results of antibiotic drug inhibiting cancer cell lines (cell viability analysis), AGS, repeated experiment): 145%; viability at 10 µM ([4]; read-out: cell viability (survival rate), AGS, drug 10 μM, 72 hours, WST-1, OD450 nm): 62.3%; viability at 10 µM ([5]; read-out: The results of antibiotic drug inhibiting cancer cell lines (cell viability analysis), MKN-45, MKN-45, repeated experiment): 127%; viability at 10 µM ([5]; read-out: cell viability (survival rate), MKN-45, drug 10 μM, 72 hours, WST-1, OD450 nm): 116%; viability at 10 µM ([6]; read-out: The results of antibiotic drug inhibiting cancer cell lines (cell viability analysis), HepG2, HepG2, repeated experiment): 113%; viability at 10 µM ([6]; read-out: cell viability (survival rate), HepG2, drug 10 μM, 72 hours, WST-1, OD450 nm): 94%; viability at 10 µM [7]: 134%; viability at 10 µM ([8]; read-out: The results of antibiotic drug inhibiting cancer cell lines (cell viability analysis), LoVo, repeated experiment): 89.3%; viability at 10 µM ([8]; read-out: cell viability (survival rate), LoVo, drug 10 μM, 72 hours, WST-1, OD450 nm): 91.6%; viability at 10 µM [9]: 68%; viability at 10 µM [10]: 102%; viability at 10 µM ([11]; read-out: The results of antibiotic drug inhibiting cancer cell lines (cell viability analysis), HeLa, repeated experiment): 126%; viability at 10 µM ([11]; read-out: cell viability (survival rate), HeLa, drug 10 μM, 72 hours, WST-1, OD450 nm): 95%; viability at 10 µM [12]: 110%; viability at 10 µM ([13]; read-out: The results of antibiotic drug inhibiting cancer cell lines (cell viability analysis), PC-3, PC-3, repeated experiment): 120%; viability at 10 µM ([13]; read-out: cell viability (survival rate), PC3, drug 10 μM, 72 hours, WST-1, OD450 nm): 79.5%; viability at 10 µM ([14]; read-out: The results of antibiotic drug inhibiting cancer cell lines (cell viability analysis), TSGH-8301, TSGH-8301, repeated experiment): 135%; viability at 10 µM ([14]; read-out: cell viability (survival rate), TSGH, drug 10 μM, 72 hours, WST-1, OD450 nm): 80.6%; viability at 10 µM [15]: 97.7%; viability at 10 µM ([16]; read-out: The results of antibiotic drug inhibiting cancer cell lines (cell viability analysis), MCF-7, MCF-7, repeated experiment): 80.1%; viability at 10 µM ([16]; read-out: cell viability (survival rate), MCF7, drug 10 μM, 72 hours, WST-1, OD450 nm): 97.4%; viability at 10 µM [17]: 111%; viability at 10 µM [18]: 68.1%; viability at 10 µM [19]: 80.3%; viability at 10 µM [20]: 117%; viability at 10 µM [21]: 65.3%; viability at 10 µM [22]: 62.2%; viability at 10 µM [23]: 88.8%; viability at 10 µM [24]: 92.7%; viability [25]: 123%
